This note sets out measurements from ChEMBL document CHEMBL1127801, “3-(2-(3-Pyridinyl)thiazolidin-4-oyl)indoles, a novel series of platelet activating factor antagonists” (J Med Chem, 1994).

One assay has as its system Mus musculus. Kind of assay: In vivo antagonist activity against PAF-Induced paw edema in the mouse. In kind it is functional.
The test system of another assay is Rattus norvegicus. Kind of assay: In vivo antagonist activity for PAF-Induced cutaneous vascular permeability in the rat. It is filed as functional.
Assay [1] addresses Platelet-activating factor receptor (Oryctolagus cuniculus). The experiment in a line: Functional inhibition of PAF-induced platelet degranulation.

By ED50 is commonly meant the dose at which the effect has come halfway, by size or by number of responders. Low readings indicate greater potency, high ones weaker potency. As to `O=C(O)C(F)(F)F.O=C(c1c[nH]c2c(OCc3ccccc3)cccc12)[C@@H]1CSC(c2cccnc2)N1` (some centres undefined), the median effective dose (ED50) in the assay on Mus musculus worked out at 6.98 mg/kg; with Rattus norvegicus, 1.41 mg/kg. The compound also returned a Kb in assay [1] of 0.571 nM.

Take `CN(C)C(=O)n1cc(C(=O)[C@@H]2CSC(c3cccnc3)N2)c2ccc(-c3ccc(F)cc3)cc21` (some centres undefined): it took a dose of 0.76 mg/kg to reach the 50% effect level in the assay on Rattus norvegicus (ED50).

On to `COC(=O)n1cc(C(=O)[C@@H]2CSC(c3cccnc3)N2)c2ccccc21` (some centres undefined), for which the ED50 in the assay on Mus musculus was found to be 1.97 mg/kg; in the assay on Rattus norvegicus it was 5.19 mg/kg.

In the assay with Mus musculus, `Cc1c(C(=O)[C@@H]2CSC(c3cccnc3)N2)c2ccccc2n1C(=O)OC(C)(C)C.O=C(O)C(=O)O` (some centres undefined) displayed an ED50 of 0.873 mg/kg.

On to `O=C(C1CSC(c2cccnc2)N1)n1ccc2cc(OCc3ccccc3)ccc21` (centres undefined), for which the Kb in assay [1] is 1.95 nM.

With `Cc1ccc2c(C(=O)[C@@H]3CSC(c4cccnc4)N3)cn(C(=O)OC(C)(C)C)c2c1` (some centres undefined), the median effective dose (ED50) in the assay on Mus musculus is 1.19 mg/kg; in the assay on Rattus norvegicus, 5.22 mg/kg.

Compound `CN(C)C(=O)n1cc(C(=O)[C@@H]2CSC(c3cccnc3)N2)c2ccc(C(=O)c3ccccc3)cc21` (some centres undefined) gave a 50% effective dose (ED50) with Rattus norvegicus of 0.521 mg/kg.

For `CN(C)C(=O)n1cc(C(=O)[C@@H]2CSC(c3cccnc3)N2)c2ccc(Oc3ccc(F)cc3)cc21` (some centres undefined), it took a dose of 0.108 mg/kg to reach the 50% effect level with Rattus norvegicus (ED50).

Regarding `CN(C)C(=O)n1cc(C(=O)[C@@H]2CSC(c3cccnc3)N2)c2ccc(OCc3ccc(F)cc3)cc21` (some centres undefined), it took a dose of 0.355 mg/kg to reach the 50% effect level in the assay on Rattus norvegicus (ED50).

`CN(C)C(=O)n1cc(C(=O)[C@@H]2CSC(c3cccnc3)N2)c2ccc(Cl)cc21` (some centres undefined): it took a dose of 1.6 mg/kg to reach the 50% effect level in the assay with Rattus norvegicus (ED50).

Take `O=C(O)C(=O)O.O=C(c1c[nH]c2ccccc12)[C@@H]1CSC(c2cccnc2)N1` (some centres undefined): the ED50 was 5.32 mg/kg with Mus musculus and 3.65 mg/kg in the assay with Rattus norvegicus.

`Cc1nnc2n1-c1sc3c(c1C(c1ccccc1Cl)=NC2)CC(C(=O)N1CCOCC1)C3` (centres undefined) [BEPAFANT]: the ED50 with Mus musculus was determined as 0.459 mg/kg; in the assay on Rattus norvegicus, 0.423 mg/kg.

Take `CC(C)(C)NC(=O)n1cc(C(=O)[C@@H]2CSC(c3cccnc3)N2)c2ccccc21` (some centres undefined): the 50% effect level in the assay on Rattus norvegicus (ED50) was put at a dose of 6.28 mg/kg.

`Cl.Cl.O=C(C1CSC(c2cccnc2)N1)n1ccc2c(Cl)cccc21` (centres undefined) came in with a median effective dose (ED50) with Rattus norvegicus of 15 mg/kg.

`CCS(=O)(=O)n1cc(C(=O)[C@@H]2CSC(c3cccnc3)N2)c2ccccc21` (some centres undefined) displayed a Kb in assay [1] of 1.59 nM.

For the compound `CC(C)(C)OC(=O)n1cc(C(=O)[C@@H]2CSC(c3cccnc3)N2)c2ccc(OCc3ccccc3)cc21` (some centres undefined), the median effective dose (ED50) in the assay with Mus musculus is 1.3 mg/kg; in the assay with Rattus norvegicus, 0.429 mg/kg. Also, the Kb in assay [1] was 1.19 nM.

Turning to `O=C(c1ccccc1)c1cccc(NC(=O)c2ccn3c2CSC3c2cccnc2)c1` (centres undefined), the median effective dose (ED50) with Mus musculus turned out to be 4.07 mg/kg; in the assay on Rattus norvegicus, 2.27 mg/kg.

`CNC(=O)n1cc(C(=O)[C@@H]2CSC(c3cccnc3)N2)c2ccccc21.O=C(O)C(=O)O.O=C(O)C(=O)O` (some centres undefined) gave a 50% effective dose (ED50) with Rattus norvegicus of 1.68 mg/kg.

Compound `O=C(c1cn(C(=O)N2CCOCC2)c2ccccc12)[C@@H]1CSC(c2cccnc2)N1` (some centres undefined) displayed a median effective dose (ED50) in the assay with Mus musculus of 2.63 mg/kg.

In the case of `O=C(c1cn(C(=O)c2ccc(Cl)cc2)c2ccccc12)[C@@H]1CSC(c2cccnc2)N1` (some centres undefined), the ED50 in the assay with Rattus norvegicus came out at 3.19 mg/kg.

As for `O=C(c1cn(Cc2ccccc2)c2ccccc12)[C@@H]1CSC(c2cccnc2)N1` (some centres undefined), the Kb in assay [1] is 22.1 nM.

`CCOC(=O)C1=C(c2ccc(-n3c(C)nc4cnccc43)cc2)NC(C)=C(C(=O)Nc2ccccn2)C1c1ccccc1Cl` (centres undefined): the ED50 in the assay with Rattus norvegicus amounted to 0.232 mg/kg.

Consider `CN(C)C(=O)n1cc(C(=O)[C@@H]2CSC(c3cccnc3)N2)c2ccc(OCc3ccccc3)cc21.O=C(O)C(=O)O` (some centres undefined), for which the ED50 in the assay on Mus musculus is 0.079 mg/kg; in the assay with Rattus norvegicus, 0.53 mg/kg.

As to `CC(C)(C)OC(=O)n1cc(C(=O)[C@@H]2CSC(c3cccnc3)N2)c2ccccc21` (some centres undefined), the ED50 turned out to be 0.372 mg/kg in the assay on Mus musculus and 4.96 mg/kg with Rattus norvegicus. This compound also returned a Kb in assay [1] of 0.111 nM.

Consider `COc1cc(C(=O)c2cccc(NC(=O)[C@@H]3CSC(c4cccnc4)N3)c2)cc(OC)c1OC` (some centres undefined), for which the 50% effective dose (ED50) with Mus musculus was found to be 0.476 mg/kg; in the assay on Rattus norvegicus, 2.06 mg/kg. The Kb in assay [1] was 0.415 nM.

Consider `O=C(c1ccccc1)c1cccc(NC(=O)[C@@H]2CSC(c3cccnc3)N2)c1` (some centres undefined), for which the 50% effective dose (ED50) in the assay with Mus musculus stood at 1.73 mg/kg; with Rattus norvegicus, 12.9 mg/kg. For the same compound, the Kb in assay [1] was found to be 4.14 nM.

On to `O=C(c1c[nH]c2cc(Br)ccc12)[C@@H]1CSC(c2cccnc2)N1` (some centres undefined), for which, in the assay with Rattus norvegicus, the 50% effective dose (ED50) amounted to 1.07 mg/kg.

As to `CCN(CC)C(=O)n1cc(C(=O)[C@@H]2CSC(c3cccnc3)N2)c2ccccc21` (some centres undefined), the 50% effective dose (ED50) is 0.52 mg/kg in the assay on Mus musculus and 0.616 mg/kg in the assay on Rattus norvegicus.

`O=C(c1cn(C(=O)N2CCOCC2)c2cc(OCc3ccccc3)ccc12)[C@@H]1CSC(c2cccnc2)N1` (some centres undefined): the results for the ED50 in the assay with Mus musculus and in the assay on Rattus norvegicus were 3.7 mg/kg and 0.762 mg/kg, respectively.

On to `COc1ccc2c(C(=O)[C@@H]3CSC(c4cccnc4)N3)cn(C(=O)OC(C)(C)C)c2c1.O=C(O)C(=O)O` (some centres undefined), for which the ED50 with Rattus norvegicus was found to be 1.9 mg/kg.

As for `CCS(=O)(=O)n1cc(C(=O)[C@@H]2CSC(c3cccnc3)N2)c2ccc(OCc3ccccc3)cc21` (some centres undefined), in the assay with Rattus norvegicus, it took a dose of 0.862 mg/kg to reach the 50% effect level (ED50).

On to `CN(C)C(=O)n1cc(C(=O)[C@@H]2CSC(c3cccnc3)N2)c2ccc(-c3cccnc3)cc21` (some centres undefined), for which, in the assay with Rattus norvegicus, it took a dose of 4.48 mg/kg to reach the 50% effect level (ED50).

As to `O=C(c1c[nH]c2cc(OCc3ccccc3)ccc12)[C@@H]1CSC(c2cccnc2)N1` (some centres undefined), the results for the ED50 in the assay with Mus musculus and in the assay on Rattus norvegicus were 1.47 mg/kg and 0.526 mg/kg, respectively. For the same compound, the Kb in assay [1] is 0.0929 nM.

For `CN(C)C(=O)n1cc(C(=O)[C@@H]2CSC(c3cccnc3)N2)c2ccc(-c3ccccc3)cc21` (some centres undefined), the ED50 in the assay on Mus musculus was 0.808 mg/kg; with Rattus norvegicus, 1.12 mg/kg.

`CN(C)C(=O)Cn1cc(C(=O)[C@@H]2CSC(c3cccnc3)N2)c2ccccc21` (some centres undefined) displayed an ED50 in the assay on Rattus norvegicus of 0.384 mg/kg.

As for `CN(C)C(=O)n1cc(C(=O)[C@@H]2CSC(c3cccnc3)N2)c2cccc(OCc3ccccc3)c21` (some centres undefined), the 50% effect level in the assay on Mus musculus (ED50) was put at a dose of 0.091 mg/kg.

`CN(C)C(=O)n1cc(C(=O)[C@@H]2CSC(c3cccnc3)N2)c2ccc(F)cc21` (some centres undefined) returned an ED50 in the assay on Rattus norvegicus of 0.945 mg/kg.

As to `O=C(c1c[nH]c2cc(-c3ccccc3)ccc12)[C@@H]1CSC(c2cccnc2)N1` (some centres undefined), the ED50 in the assay with Mus musculus turned out to be 5.39 mg/kg; in the assay on Rattus norvegicus it was 2.3 mg/kg.

Compound `CN(C(=O)n1cc(C(=O)[C@@H]2CSC(c3cccnc3)N2)c2ccccc21)c1ccccc1` (some centres undefined) yielded a Kb in assay [1] of 1.93 nM.

For the compound `O=C(c1c[nH]c2cc(F)ccc12)[C@@H]1CSC(c2cccnc2)N1` (some centres undefined), the ED50 in the assay with Rattus norvegicus came to 2.69 mg/kg.

The compound `Cc1[nH]c2ccccc2c1C(=O)[C@@H]1CSC(c2cccnc2)N1` (some centres undefined) showed a Kb in assay [1] of 1.99 nM.

As for `Cc1ccc2c(c1)c(C(=O)[C@@H]1CSC(c3cccnc3)N1)c(C)n2C(=O)OC(C)(C)C.O=C(O)C(=O)O` (some centres undefined), in the assay on Rattus norvegicus, the ED50 was 9.51 mg/kg.

Take `CN(C)C(=O)n1cc(C(=O)[C@@H]2CSC(c3cccnc3)N2)c2ccccc21` (some centres undefined): the 50% effective dose (ED50) with Mus musculus turned out to be 0.979 mg/kg; in the assay on Rattus norvegicus, 1.3 mg/kg. In assay [1], this compound registered a Kb of 0.291 nM.

Regarding `CN(C)C(=O)n1cc(C(=O)[C@@H]2CSC(c3cccnc3)N2)c2ccc(C#Cc3ccccc3)cc21` (some centres undefined), the 50% effect level with Rattus norvegicus (ED50) was put at a dose of 0.885 mg/kg.

As for `CCCOc1c(OC)cc([C@@H]2CC[C@@H](c3cc(OC)c(OC)c(OC)c3)O2)cc1S(=O)(=O)CCO`, the ED50 is 11.5 mg/kg with Mus musculus and 1.89 mg/kg in the assay on Rattus norvegicus.

Regarding `O=C(c1c[nH]c2cc(OCc3ccc(F)cc3)ccc12)[C@@H]1CSC(c2cccnc2)N1` (some centres undefined), in the assay on Rattus norvegicus, the 50% effect level (ED50) was put at a dose of 0.273 mg/kg.

`COc1ccc2c(C(=O)[C@@H]3CSC(c4cccnc4)N3)c[nH]c2c1` (some centres undefined) gave a median effective dose (ED50) in the assay with Mus musculus of 3.7 mg/kg.

Take `O=C([C@@H]1CSC(c2cccnc2)N1)n1ccc2ccc(OCc3ccccc3)cc21` (some centres undefined): the Kb in assay [1] worked out at 12 nM.

On to `O=C(O)C(=O)O.O=C(c1cn(C(=O)OCc2ccccc2)c2ccccc12)[C@@H]1CSC(c2cccnc2)N1` (some centres undefined), for which the 50% effect level with Mus musculus (ED50) was put at a dose of 1.79 mg/kg.

Turning to `Cc1nnc2n1C1=C(C(c3ccccc3Cl)=NC2C)C2CCN(C(=O)C3CC3)CC2S1` (centres undefined), the ED50 in the assay with Mus musculus came to 1.44 mg/kg; in the assay on Rattus norvegicus it was 0.15 mg/kg.

In the case of `Cc1nnc2n1-c1sc(CCC(=O)N3CCOCC3)cc1C(c1ccccc1Cl)=NC2` [APAFANT], the ED50 came out at 2.2 mg/kg with Mus musculus and 22.3 mg/kg in the assay with Rattus norvegicus.

In the assay with Mus musculus, `CC(C)(C)C(=O)n1cc(C(=O)[C@@H]2CSC(c3cccnc3)N2)c2ccccc21` (some centres undefined) displayed an ED50 of 15.8 mg/kg.
